Source: ChEMBL document CHEMBL6134800, “Applications of innovative synthetic strategies in anticancer drug discovery: The driving force of new chemical reactions” (Bioorg Med Chem Lett, 2025)
Values after ≈ are worked out from the molar mass of the structure shown. One block for each compound: values may come before it.

Key:
[1] = system: LoVo; test: Antiproliferative activity against human LoVo cells; format: functional, cell-based
[2] = system: MDA-MB-231; test: Antiproliferative activity against human MDA-MB-231 cells; format: functional, cell-based
[3] = system: T47D; test: Antiproliferative activity against human T47D cells; format: functional, cell-based
[4] = system: HCT-116; test: Antiproliferative activity against human HCT-116 cells; format: functional, cell-based
[5] = system: MCF7; test: Antiproliferative activity against human MCF7 cells; format: functional, cell-based
[6] = system: HeLa; test: Antiproliferative activity against human HeLa cells assessed as reduction in cell viability incubated for 24 hrs by MTT assay; format: functional, cell-based
[7] = system: A549; test: Antiproliferative activity against human A549 cells assessed as reduction in cell viability incubated for 24 hrs by MTT assay; format: functional, cell-based; conditions: A549, 24 h
[8] = system: HCT-116; test: Antiproliferative activity against human HCT-116 cells assessed as reduction in cell viability incubated for 24 hrs by MTT assay; format: functional, cell-based; conditions: HCT-116, 24 h
[9] = system: A549; test: Growth inhibition of human A549 cells measured for 48 hrs by SRB assay; format: functional
[10] = system: MCF7; test: Growth inhibition of human MCF7 cells measured for 48 hrs by SRB assay; format: functional
[11] = Antioxidant activity assessed as hydroxyl radical scavenging activity; format: functional
[12] = system: HepG2; test: Growth inhibition of human HepG2 cells measured for 48 hrs by SRB assay; format: functional
[13] = system: PC-3; test: Growth inhibition of human PC-3 cells measured for 48 hrs by SRB assay; format: functional
[14] = Antioxidant activity assessed as DPPH radical scavenging activity; format: functional
[15] = system: HL-60; test: Cytotoxicity against human HL-60 cells assessed as reduction in cell growth by resazurin assay; format: functional, cell-based
[16] = system: Bacillus subtilis; test: Antibacterial activity against Bacillus subtilis assessed as reduction in bacterial growth; format: functional, organism-based
[17] = system: NIH3T3; test: Cytotoxicity against mouse NIH/3T3 cells assessed as reduction in cell growth by resazurin assay; format: functional, cell-based
[18] = system: Escherichia coli; test: Antimicrobial activity against Escherichia coli assessed as reduction in microbial growth; format: functional, organism-based
[19] = system: A549; test: Cytotoxicity against human A549 cells assessed as reduction in cell growth by resazurin assay; format: functional, cell-based
[20] = system: MCF7; test: Cytotoxicity against human MCF7 cells assessed as reduction in cell viability by MTT assay; format: functional, cell-based
[21] = Cytotoxicity against human BEAS-2B cells assessed as reduction in cell viability by MTT assay; format: toxicity, cell-based
[22] = system: A549; test: Cytotoxicity against human A549 cells assessed as reduction in cell viability by MTT assay; format: functional, cell-based
[23] = system: HeLa; test: Cytotoxicity against human HeLa cells assessed as reduction in cell viability incubated for 48 hrs by SRB assay; format: functional, cell-based
[24] = system: DU-145; test: Cytotoxicity against human DU-145 cells assessed as reduction in cell viability incubated for 48 hrs by SRB assay; format: functional, cell-based; conditions: DU-145, 48 h
[25] = system: MDA-MB-231; test: Cytotoxicity against human MDA-MB-231 cells assessed as reduction in cell viability incubated for 48 hrs by SRB assay; format: functional, cell-based; conditions: MDA-MB-231, 48 h
[26] = system: HepG2; test: Cytotoxicity against human HepG2 cells assessed as reduction in cell viability incubated for 48 hrs by SRB assay; format: functional, cell-based; conditions: HepG2, 48 h
[27] = system: HeLa; test: Antiproliferative activity against human HeLa cells assessed as reduction in cell viability incubated for 48 hrs by MTT assay; format: functional, cell-based
[28] = system: BXPC-3; test: Antiproliferative activity against human BXPC-3 cells assessed as reduction in cell growth incubated for 72 hrs by MTT assay; format: functional, cell-based
[29] = system: HCT-116; test: Anticancer activity against human HCT-116 cells assessed as inhibition of cell viability at 20 uM relative to control; format: functional
[30] = system: HCT-116; test: Anticancer activity against human HCT-116 cells assessed as reduction in cell viability; format: functional, cell-based
[31] = system: A549; test: Antiproliferative activity against human A549 cells assessed as reduction in cell growth by MTT assay; format: functional, cell-based
[32] = system: HeLa; test: Antiproliferative activity against human HeLa cells assessed as reduction in cell growth by MTT assay; format: functional, cell-based
[33] = system: K562/Adr; test: Antiproliferative activity against human K562/Adr cells assessed as reduction in cell growth incubated for 72 hrs by MTT assay; format: functional, cell-based
[34] = system: KBv200; test: Cytotoxicity against human KBv200 cells assessed as reduction in cell viability incubated for 72 hrs by SRB assay; format: functional, cell-based; conditions: KBv200, 72 h
[35] = target: Cyclin-dependent kinases regulatory subunit 1/S-phase kinase-associated protein 2 (Homo sapiens) (UniProt P61024+Q13309); test: Inhibition of SKP2/CKS1 (unknown origin) protein-protein interaction at 50 uM relative to control; format: protein assay
Chain of Cyclin-dependent kinases regulatory subunit 1/S-phase kinase-associated protein 2 (Homo sapiens) (P61024 2-79 limits assumed): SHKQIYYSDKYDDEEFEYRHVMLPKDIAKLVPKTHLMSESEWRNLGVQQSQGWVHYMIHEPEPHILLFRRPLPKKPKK
Chain of Cyclin-dependent kinases regulatory subunit 1/S-phase kinase-associated protein 2 (Homo sapiens) (Q13309 whole entry partner): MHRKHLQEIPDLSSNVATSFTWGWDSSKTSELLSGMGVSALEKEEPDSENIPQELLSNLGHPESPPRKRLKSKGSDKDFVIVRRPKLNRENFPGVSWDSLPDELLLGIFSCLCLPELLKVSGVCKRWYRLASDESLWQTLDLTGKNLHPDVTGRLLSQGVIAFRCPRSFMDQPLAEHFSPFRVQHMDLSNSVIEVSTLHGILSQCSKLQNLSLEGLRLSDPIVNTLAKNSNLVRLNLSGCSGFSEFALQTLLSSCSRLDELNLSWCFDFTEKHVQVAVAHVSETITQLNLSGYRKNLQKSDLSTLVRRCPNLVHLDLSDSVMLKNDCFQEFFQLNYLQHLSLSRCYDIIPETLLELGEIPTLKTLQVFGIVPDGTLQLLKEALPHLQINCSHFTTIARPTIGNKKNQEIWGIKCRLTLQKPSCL

SMILES: C=C1N(S(=O)(=O)c2ccc(C)cc2)c2ccccc2[C@@]1(C)N
IC50 [1]: > 25 µM
IC50 [2]: 6.66 µM
IC50 [3]: 17.7 µM
IC50 [4]: > 25 µM
IC50 [5]: 16.1 µM

SMILES: Cc1cc(C(F)(F)F)c2c(n1)-c1ccccc1C2c1ccsc1 (stereo not drawn)
IC50 [6]: 2.32 µM
IC50 [7]: > 50 µM
IC50 [8]: > 50 µM

SMILES: Cc1cc(C)cc(P(=O)(c2cc(C)cc(C)c2)C2C(C#N)=C(N)Oc3ccc(F)cc32)c1 (stereo not drawn)
IC50 [15]: 10.1 µM
IC50 [16]: 5.03 µM
IC50 [17]: > 30 µM
IC50 [18]: > 10 µM
IC50 [19]: > 30 µM

SMILES: COC(=O)c1nc2nc(Oc3ccccc3)c(C#N)c(-c3cccc([N+](=O)[O-])c3)c2c(N)c1C(=O)OC
IC50 [20]: 1.48 µg/mL (≈ 2.96 µM)
IC50 [21]: 4.09 µg/mL (≈ 8.19 µM)
IC50 [22]: 6.12 µg/mL (≈ 12.3 µM)

SMILES: COc1cccc2c1C(=O)c1c(O)c3c(c(O)c1C2=O)C[C@@](O)(C(=O)CO)C[C@@H]3O[C@H]1C[C@H](N)[C@H](O)[C@H](C)O1.Cl [DOXORUBICIN HYDROCHLORIDE]
IC50 [23]: 12.6 µg/mL
IC50 [24]: 3.82 µg/mL
IC50 [25]: 8.64 µg/mL
IC50 [26]: 26.7 µg/mL

SMILES: Cc1nn(-c2ccccc2Cl)c(O)c1-c1ccccc1C1=Nc2ccccc2C1(C)C
IC50 [27]: 26.7 µM

SMILES: Cc1nn(-c2ccc(C(C)C)cc2)c(O)c1-c1ccccc1C1=Nc2ccccc2C1(C)C
IC50 [27]: 23.8 µM

SMILES: CN1C(=O)C2(N=C(c3ccccc3)N3CCc4cc(Br)cc2c43)c2ccccc21 (stereo not drawn)
IC50 [7]: 1 µM

SMILES: CC(C)C[C@H](NC(=O)[C@H](Cc1ccccc1)NC(=O)c1cnccn1)B(O)O [BORTEZOMIB]
IC50 [15]: 7.42 µM

SMILES: CCc1cc(C(=O)c2ccccc2Cl)c(NC(c2cc(OC)c(OC)c(OC)c2)c2c(O)ccc3ccccc23)s1 (stereo not drawn)
GI50 [9]: < 10 µg/mL
GI50 [10]: < 10 µg/mL
IC50 [11]: 32.8 µM
GI50 [12]: < 10 µg/mL
GI50 [13]: < 10 µg/mL
IC50 [14]: 33.5 µM

SMILES: COC(=O)c1nc2nc(Oc3ccccc3)c(C#N)c(-c3ccc(OC)cc3)c2c(N)c1C(=O)OC
IC50 [20]: 48.2 µg/mL (≈ 99.6 µM)
IC50 [21]: 51.3 µg/mL (≈ 106 µM)
IC50 [22]: 10.1 µg/mL (≈ 20.9 µM)

Now from value to compound, other results behind:

GI50 [9]: < 10 µg/mL
GI50 [10]: < 10 µg/mL
IC50 [11]: 34.8 µM
GI50 [12]: < 10 µg/mL
GI50 [13]: < 10 µg/mL
IC50 [14]: 32.1 µM
SMILES: CCc1cc(C(=O)c2ccccc2Cl)c(NC(c2cccs2)c2c(O)ccc3ccccc23)s1 (stereo not drawn)

IC50 ([28]; bxpc-3): 8.6 µM
SMILES: Cc1ccc([C@H]2NC(=O)n3c(cc4ccccc43)C23CC3)cc1 (stereo in doubt; 16a)

IC50 ([28]; Homo sapiens, BXPC-3, 72 h): 2.3 µM
SMILES: Nc1ccn([C@@H]2O[C@H](CO)[C@@H](O)C2(F)F)c(=O)n1 [GEMCITABINE]

IC50 [30]: 7.1 µM
SMILES: CC(C)OC(=O)C1=CN(c2ccccc2)CC(O)(c2cccc(Cl)c2)O1 (stereo not drawn)
inhibition at 20 µM [29]: 77%

IC50 [6]: 6.65 µM
IC50 [7]: 12.3 µM
IC50 [8]: 14.9 µM
SMILES: COc1ccc(C2c3ccccc3-c3nc(C)cc(C(F)(F)F)c32)cc1 (stereo not drawn)

IC50 [27]: 27.3 µM
SMILES: Cc1nn(-c2ccc(C#N)cc2)c(O)c1-c1ccccc1C1=Nc2ccccc2C1(C)C

IC50 [31]: 1.26 µM
IC50 [32]: 31.6 µM
SMILES: Cc1c2n(c3ccccc13)C(O)(C(F)(F)F)C=C2c1ccccc1 (stereo not drawn)

IC50 [33]: 1.03 µM
SMILES: CC(=O)O[C@@]12CO[C@@H]1C[C@H](O)[C@@]1(C)C(=O)[C@H](O)C3=C(C)[C@@H](OC(=O)[C@H](O)[C@@H](NC(=O)OC(C)(C)C)c4ccccc4)C[C@@](O)([C@@H](OC(=O)c4ccccc4)[C@H]21)C3(C)C [DOCETAXEL ANHYDROUS]
IC50 [34]: 0.104 µM

GI50 [9]: < 10 µg/mL
GI50 [10]: < 10 µg/mL
GI50 [12]: < 10 µg/mL
GI50 [13]: < 10 µg/mL
SMILES: COc1cccc2c1C(=O)c1c(O)c3c(c(O)c1C2=O)C[C@@](O)(C(=O)CO)C[C@@H]3O[C@H]1C[C@H](N)[C@H](O)[C@H](C)O1 [DOXORUBICIN]
IC50 [17]: 5.65 µM
IC50 [21]: 4.18 µg/mL (≈ 7.69 µM)
IC50 [19]: 0.31 µM

inhibition [35]: 57%
SMILES: COc1cc(OC)c(-c2cc(CC3c4ccccc4C(=O)N3c3ccc(Br)cc3)nc3ncnn23)c(OC)c1 (stereo not drawn)

IC50 [6]: 1.54 µM
IC50 [7]: 8.43 µM
IC50 [8]: 2.1 µM
SMILES: COc1ccccc1C1=C2C(=O)c3ccccc3C(=O)/N=C3/c4ccccc4C(=O)C23c2cccc3c2N1CC3 (stereo not drawn)

GI50 [9]: < 10 µg/mL
GI50 [10]: < 10 µg/mL
IC50 [11]: 25.1 µM
GI50 [12]: < 10 µg/mL
GI50 [13]: < 10 µg/mL
IC50 [14]: 27.3 µM
SMILES: O=C1O[C@H]([C@@H](O)CO)C(O)=C1O [ASCORBIC ACID]
